Target: T1, GST-human KRas166 (G12V) GPPNHP (Homo sapiens, UniProt P01116, G12V)
T1 construct: made in house; host or cells: E. coli C41(DE3)
Assay: KRas small-molecule screening by SPR (Biacore T200)
Assay type: binding
Settings: compound 100 uM, 5% DMSO buffer; immobilised GST-KRas166 (G12V) GPPNHP
Method: For SPR assays pGEX-KRAS(G12V) plasmid was transformed into E. coli C41(DE3). Bacterial cells were cultured at 37° C. to an OD600 of 0.6 and induced with IPTG (final 0.1 mM) at 18° C. over night. The GST fusion proteins were extracted from bacteria pellets after cell disruption in 140 mM NaCl, 2.7 mM KCl, 10 mM NaH2PO4, 1.8 mM KH2PO4, 1 mM EDTA, 2 mM MgCl2 pH 7.4 and purified by glutathione-sepharose column chromatography (GE Healthcare), eluting with 50 mM Tris-HCl pH8.0, 10 mM reduced glutathione, 1 mM DTT, 2 mM MgCl2. The eluted proteins were dialysed against 50 mM Tris-HCl pH8.0, 1 mM DTT, 2 mM MgCl2 and concentrated to 10 mg/ml using a Biomax-30 ULTRAFREE-15 centrifugal filter device (Millipore). Purified KRAS protein was loaded with GPPNHP as described elsewhere (Pacold et al., 2000). Loaded protein was then purified by gel filtration on a HiLoad Superdex-75 HR column (GE Healthcare) in 1×PBS pH7.4, 5 mM MgCl2 and concentrated for storage.
Protocol for KRas Small-Molecule Screening and Affinity Measurements by SPR
To a previously immobilized CM5 chip (GE Healthcare BR-1005-30) with anti GST antibody via amine coupling method, GST in channel 1 and GST-human KRas166 (G12V) GPPNHP in channel 2 were immobilised. GST was immobilised between 2,000 and 5,000 Response units. KRAS166 (G12V) was immobilized between 10,000 to 15,000 Response Units.
In a 96 well plate, compounds were diluted in […], 5 mM MgCl2 and 5% DMSO Buffer to a final concentration of 100 uM. DCAl was used as positive control. Experiment also included a solvent correction curve for 5% DMSO. Screening and evaluation of the protein immobilization and the compounds screening was done accordingly to the BIACORE T200 control and evaluation software.
Calculations for how many response units are required for a 1:1 ratio of compound/protein interaction are shown below. • Protein immobilisation: 10,000 RU; average fragment 300 Da in size. • Rmax=(MWA/MWL)×RL×SM • MWA is the molecular weight of the analyte in Da • MWL is the molecular weight of the ligand in Da • RL is the immobilization level in RU • SM is the molar stoichiometry (assume 1:1) • Rmax=300/47,500×10,000×1 • Rmax=63 RU. Cell Viability Assay protocols Assay 1

SMILES | SPR Response Units [Response Units]
COc1cccc(-c2cccc3c2OCCO3)n1 [Example 1, 2-(2,3-Dihydro-benzo[1,4]dioxin-5-yl)-6-methoxy-pyridine] | 10
COc1cccc(-c2cccc3c2OC(CO)CO3)n1 (centres unmarked) [Example 2, [8-(6-Methoxy-pyridin-2-yl)-2,3-dihydro-benzo[1,4]dioxin-2-yl]-methanol] | 17
COc1cc(N)cc(-c2cccc3c2OCCO3)n1 [Example 3, 2-(2,3-Dihydro-benzo[1,4]dioxin-5-yl)-6-methoxy-pyridin-4-ylamine] | 16
COc1cc(NC(=O)C2CCN(C)CC2)cc(-c2cccc3c2OCCO3)n1 [Example 4, 1-Methyl-piperidine-4-carboxylic acid [2-(2,3-dihydro-benzo[1,4]dioxin-5-yl)-6-methoxy-pyridin-4-yl]-amide] | 37
COc1cc(NC(=O)[C@@H]2CCNC2)cc(-c2cccc3c2OCCO3)n1 [Example 17, (R)-Pyrrolidine-3-carboxylic acid [2-(2,3-dihydro-benzo[1,4]dioxin-5-yl)-6-methoxy-pyridin-4-yl]-amide] | 84
COc1cc(NC(=O)[C@H]2CNCCO2)cc(-c2cccc3c2OCCO3)n1 [Example 18, (R)-Morpholine-2-carboxylic acid [2-(2,3-dihydro-benzo[1,4]dioxin-5-yl)-6-methoxy-pyridin-4-yl]-amide] | 71
COc1cc(NC(=O)C2CCNCC2)cc(-c2cccc3c2OCCO3)n1 [Example 19, Piperidine-4-carboxylic acid [2-(2,3-dihydro-benzo[1,4]dioxin-5-yl)-6-methoxy-pyridin-4-yl]-amide] | 100
COc1cc(NC(=O)[C@@H]2CNCCO2)cc(-c2cccc3c2OCCO3)n1 [Example 20, (S)-Morpholine-2-carboxylic acid [2-(2,3-dihydro-benzo[1,4]dioxin-5-yl)-6-methoxy-pyridin-4-yl]-amide] | 80
COc1cc(NC(=O)[C@H]2CC[C@@H](N)CC2)cc(-c2cccc3c2OCCO3)n1 [Example 21, 4-Amino-cyclohexanecarboxylic acid [2-(2,3-dihydro-benzo[1,4]dioxin-5-yl)-6-methoxy-pyridin-4-yl]-amide] | 66
COc1cc(NC(=O)N(C)C2CCN(C)CC2)cc(-c2cccc3c2OCCO3)n1 [Example 22, 3-[2-(2,3-Dihydro-benzo[1,4]dioxin-5-yl)-6-methoxy-pyridin-4-yl]-1-methyl-1-(1-methyl-piperidin-4-yl)-urea] | 55
COc1cc(NC(=O)N2CCN(C)CC2)cc(-c2cccc3c2OCCO3)n1 [Example 23, 4-Methyl-piperazine-1-carboxylic acid [2-(2,3-dihydro-benzo[1,4]dioxin-5-yl)-6-methoxy-pyridin-4-yl]-amide] | 58
COc1cccc(-c2cccc3c2OC(CNCC2CCN(C)CC2)CO3)n1 (centres unmarked) [Example 27, [8-(6-Methoxy-pyridin-2-yl)-2,3-dihydro-benzo[1,4]dioxin-2-ylmethyl]-(1-methyl-piperidin-4-ylmethyl)-amine] | 58
COc1cccc(-c2cccc3c2OC(CNCc2cccnc2)CO3)n1 (centres unmarked) [Example 28, [8-(6-Methoxy-pyridin-2-yl)-2,3-dihydro-benzo[1,4]dioxin-2-ylmethyl]-pyridin-3-ylmethyl-amine] | 28
COc1cccc(-c2cccc3c2OC(CNCC2CCOCC2)CO3)n1 (centres unmarked) [Example 29, [8-(6-Methoxy-pyridin-2-yl)-2,3-dihydro-benzo[1,4]dioxin-2-ylmethyl]-(tetrahydro-pyran-4-ylmethyl)-amine] | 14
COc1cccc(-c2cccc3c2OC(CNCC2CCN(C(=O)c4cnccn4)CC2)CO3)n1 (centres unmarked) [Example 29a, [4-({[8-(6-Methoxy-pyridin-2-yl)-2,3-dihydro-benzo[1,4]dioxin-2-ylmethyl]-amino}-methyl)-piperidin-1-yl]-pyrazin-2-yl-methanone] | 26
COc1cccc(-c2cccc3c2OC(CNCC2CCN(C(=O)C4CCOCC4)CC2)CO3)n1 (centres unmarked) [Example 30, [4-({[8-(6-Methoxy-pyridin-2-yl)-2,3-dihydro-benzo[1,4]dioxin-2-ylmethyl]-amino}-methyl)-piperidin-1-yl]-(tetrahydro-pyran-4-yl)-methanone] | 42
COc1cccc(-c2cccc3c2OC(CN2C(=O)NC4(CCN(C)CC4)C2=O)CO3)n1 (centres unmarked) [Example 34, 3-[8-(6-Methoxy-pyridin-2-yl)-2,3-dihydro-benzo[1,4]dioxin-2-ylmethyl]-8-methyl-1,3,8-triaza-spiro[4.5]decane-2,4-dione] | 37
COc1cccc(-c2cccc3c2OC(CN2C(=O)NC(C)(C)C2=O)CO3)n1 (centres unmarked) [Example 35, 3-[8-(6-Methoxy-pyridin-2-yl)-2,3-dihydro-benzo[1,4]dioxin-2-ylmethyl]-5,5-dimethyl-imidazolidine-2,4-dione] | 33
COc1ccc(N2CC(=O)N(CC3COc4cccc(-c5cccc(OC)n5)c4O3)C2=O)cn1 (centres unmarked) [Example 36, 1-(6-Methoxy-pyridin-3-yl)-3-[8-(6-methoxy-pyridin-2-yl)-2,3-dihydro-benzo[1,4]dioxin-2-ylmethyl]-imidazolidine-2,4-dione] | 58
COc1cccc(-c2cccc3c2OC(CN2C(=O)CN(C4CCNCC4)C2=O)CO3)n1 (centres unmarked) [Example 37, 3-[8-(6-Methoxy-pyridin-2-yl)-2,3-dihydro-benzo[1,4]dioxin-2-ylmethyl]-1-piperidin-4-yl-imidazolidine-2,4-dione] | 31
CN1CCN(Cc2ccc(C(=O)NCC3COc4cccc(-c5ccn[nH]5)c4O3)o2)CC1 (centres unmarked) [Example 42, 5-(4-Methyl-piperazin-1-ylmethyl)-furan-2-carboxylic acid [8-(2H-pyrazol-3-yl)-2,3-dihydro-benzo[1,4]dioxin-2-ylmethyl]-amide] | 62
COc1cccc(-c2cccc3c2O[C@@H](CNC(=O)c2ccc(CN4CCN(C)CC4)o2)CO3)n1 [Example 44, 5-(4-Methyl-piperazin-1-ylmethyl)-furan-2-carboxylic acid [(S)-8-(6-methoxy-pyridin-2-yl)-2,3-dihydro-benzo[1,4]dioxin-2-ylmethyl]-amide] | 42
COc1cccc(-c2cccc3c2OC(CNC(=O)C2CCOCC2)CO3)n1 (centres unmarked) [Example 45, Tetrahydro-pyran-4-carboxylic acid [8-(6-methoxy-pyridin-2-yl)-2,3-dihydro-benzo[1,4]dioxin-2-ylmethyl]-amide] | 12
COc1ccc(-c2cccc3c2OC(CNC(=O)c2ccc(CN4CCN(C)CC4)o2)CO3)cn1 (centres unmarked) [Example 45a, 5-(4-Methyl-piperazin-1-ylmethyl)-furan-2-carboxylic acid [8-(6-methoxy-pyridin-3-yl)-2,3-dihydro-benzo[1,4]dioxin-2-ylmethyl]-amide] | 90
COc1cccc(-c2cccc3c2OC(CNC(=O)CCN(C)C)CO3)n1 (centres unmarked) [Example 47, 3-Dimethylamino-N-[8-(6-methoxy-pyridin-2-yl)-2,3-dihydro-benzo[1,4]dioxin-2-ylmethyl]-propionamide] | 16
COc1cccc(-c2cccc3c2O[C@H](CNC(=O)C2CCN(Cc4cnccn4)CC2)CO3)n1 [Example 48, 1-Pyrazin-2-ylmethyl-piperidine-4-carboxylic acid [(R)-8-(6-methoxy-pyridin-2-yl)-2,3-dihydro-benzo[1,4]dioxin-2-ylmethyl]-amide] | 54

— patent US12024506B2, “Compounds” (Oxford University Innovation Limited, priority 2018, dated 2024)
